Assays:
Format in all cases: cell-based
[1] = tested on: B16F10 mouse melanoma cells; experiment: Measurement of melanin content
Description: Measurement of melanin content was carried out by slightly modifying the method by Yang et al. (Yang et al., 2006, Acta pharmacologica Sinica 27, 1467-73). Specifically, B16F10 cells were inoculated into a 6-well plate and cultured for 24 hours. Thereafter, the cells were treated with amorphigeni and α-MSH, each at 1 μM, followed by culture for 48 hours. The cultured cells were collected after being subjected to trypsinization and dissolution in 1 N NaOH containing DMSO for 24 hours at 65° C. By using a microplate reader (Bio-Rad), melanin content was measured at 415 nm.
In order to see whether or not amorphigeni can suppress the pigmentation induced by α-MSH (melanocyte-stimulating hormone), B16F10 cells were treated with α-MSH and amorphigeni, either separately or simultaneously, followed by incubation for 72 hours. […] Namely, it was able confirm that, by reducing melanin content, amorphigeni of the present invention can suppress […].
Furthermore, after treating B16F10 melanin cells with α-MSH, amorphigeni, and 3MA all together for 48 hours, the melanin content and oxidation level of L-DOPA were measured (***P≤0.001).
In order to confirm whether or not amorphigeni causes degradation of melanosomes which have been previously produced by α-MSH, B16F10 melanin cells were treated for 48 hours with α-MSH to have synthesis of melanosomes. Thereafter, the cells were treated with amorphigeni for 48 hours, and melanin content was measured.
Furthermore, in order to see whether or not amorphigeni causes degradation of previously produced melanosomes via autophagy, B16F10 melanin cells were treated with α-MSH for 48 hours to have synthesis of melanosome. After that, the cells were treated with 3MA as an autophagy inhibitor for 48 hours. Then, the melanin content and protein expression level of tyrosinase and PMEL were measured (ns=no significance, *P≤0.05, **P≤0.01, ***P≤0.001).

[2] = tested on: B16F10 mouse melanoma cells; experiment: Cell viability (MTT analysis); settings: amorphigeni at 100 nM and 1600 nM, 24 hours, FIG. 2
Description: B16F10 cells were cultured for 24 hours in a 96-well plate. Thereafter, they were treated with amorphigeni at various concentrations, and cultured for 24 hours. Subsequently, a MTT solution (5 μg/mL) was added to the cells, which were then cultured for 3 hours. After removing the medium and treating the cells with DMSO, the cells were cultured for 20 minutes. By using a microplate reader (Bio-Rad), absorbance at 595 nm was measured.
In Example 1, to find out functional plant metabolites which induce depigmentation in melanin cells, amorphigeni was isolated from roots of Amorpha fruticosa (FIG. 1). To determine the cytotoxicity of amorphigeni, B16F10 cells were treated with amorphigeni at various concentrations followed by culture for 24 hours. Then, based on MTT (3-(4,5-dimethylthiazol-2-yl)-2,5-diphenyltetrazolium bromide) analysis, cell viability was determined.

[3] = tested on: B16F10 mouse melanoma cells; experiment: Cell cycle measurement, PI staining, flow cytometer; settings: FIG. 3

C=C(CO)C1Cc2c(ccc3c2OC2COc4cc(OC)c(OC)cc4C2C3=O)O1 (stereo not drawn) [amorphigeni]
content of the previously formed melanin ([1]; α-MSH 48 hours, then amorphigeni 48 hours, FIG. 10): effectively lowered | melanin content (previously formed) ([1]; α-MSH 48 hours, then amorphigeni and 3MA 48 hours, versus α-MSH and amorphigeni, FIG. 11): increased again | melanin content ([1]; α-MSH and amorphigeni together versus α-MSH only, 72 hours, FIG. 4A): tend to decease | melanin content ([1]; α-MSH, amorphigeni and 3MA together, 48 hours, versus α-MSH and amorphigeni, FIG. 9A): increased again | cytotoxicity (cell viability, MTT) [2]: low cytotoxicity | cell death (cell cycle, PI staining) [3]: without inducing any cell death

Reference: US10500146B2, “Composition for skin whitening comprising amorphigeni as effective ingredient” (INDUSTRY-ACADEMIC COOPERATION FOUNDATION GYEONGSANG …, priority 2015, dated 2019)
